Measured values reported in patent US20130072430A1, “METHODS FOR TREATMENT OR PROPHYLAXIS OF KIDNEY OR LIVER DYSFUNCTION” (NPS PHARMACEUTICALS, INC., priority 2010, published 2013).

Test system: Human patients with short bowel syndrome
Assay: Example 2: liver biomarkers (albumin, gamma glutamyl transferase, total bilirubin, ALT, AST, ALP) in short bowel syndrome patients, every four weeks for 24 weeks
Assay type: in vivo
Details: 0.05 mg/kg/d
Description: To further confirm the results of Example 1, a further study was conducted involving more individuals and additional diagnostic biomarkers. Human patients with short bowel syndrome were divided into two groups: a control group (43 total individuals) to receive placebo, and an experimental group (42 total individuals) to receive teduglutide at 0.05 mg/kg/day throughout the study. Patients were treated by subcutaneous injection of placebo or the appropriate dose of teduglutide. Known biomarkers of liver function were monitored every four weeks, for 24 weeks. The liver biomarkers tested included albumin, gamma glutamyl transferase, total bilirubin, ALT and AST and ALP. Before administration of placebo or teduglutide, diagnostic biomarker levels were tested to establish a baseline for each individual.
To determine the effect of GLP-2 on the levels of the diagnostic biomarkers, the average level of each biomarker was measured for the placebo and teduglutide treated groups for each visit. Furthermore, the average change from baseline was calculated using the established baseline values. For FIGS. 17-28, p-values were calculated using the t-test.
P values are provided, which were calculated for each distribution of biomarker changes for each week using the chi-squared test.

`CC[C@H](C)[C@H](NC(=O)[C@H](Cc1ccccc1)NC(=O)[C@H](CC(=O)O)NC(=O)[C@H](CCCNC(=N)N)NC(=O)[C@H](C)NC(=O)[C@H](C)NC(=O)[C@H](CC(C)C)NC(=O)[C@H](CC(N)=O)NC(=O)[C@H](CC(=O)O)NC(=O)[C@H](CC(C)C)NC(=O)[C@@H](NC(=O)[C@@H](NC(=O)[C@H](CC(N)=O)NC(=O)[C@H](CCSC)NC(=O)[C@H](CCC(=O)O)NC(=O)[C@H](CC(=O)O)NC(=O)[C@H](CO)NC(=O)[C@H](Cc1ccccc1)NC(=O)[C@H](CO)NC(=O)CNC(=O)[C@H](CC(=O)O)NC(=O)CNC(=O)[C@@H](N)Cc1c[nH]cn1)[C@@H](C)O)[C@@H](C)CC)C(=O)N[C@@H](CC(N)=O)C(=O)N[C@@H](Cc1c[nH]c2ccccc12)C(=O)N[C@@H](CC(C)C)C(=O)N[C@H](C(=O)N[C@@H](CCC(N)=O)C(=O)N[C@H](C(=O)N[C@@H](CCCCN)C(=O)N[C@H](C(=O)N[C@H](C(=O)N[C@@H](CC(=O)O)C(=O)O)[C@@H](C)O)[C@@H](C)CC)[C@@H](C)O)[C@@H](C)CC` [teduglutide] was tested, and the “Gamma Glutamyl Transferase Change from Baseline, Median” value (Week 8, n=40) was −5.5 U/L, the “Gamma Glutamyl Transferase Observed Value, Mean” value (Week 8, n=40) was 71.5 U/L and the “Gamma Glutamyl Transferase Observed Value, Median” value (Week 8, n=40) was 46 U/L. For the same molecule, the “ALT >10% decrease from Baseline, % of subjects” value (Week 12, m=34) was “(50.0%)”, the “ALT >10% decrease from Baseline, n subjects” value (Week 12, m=34) was 17 and the “ALT >10% increase from Baseline, % of subjects” value (Week 12, m=34) was “(20.6%)”. The “ALT >10% increase from Baseline, n subjects” value (Week 12, m=34) was 7, the “ALT Within 10% of Baseline, % of subjects” value (Week 12, m=34) was “(29.4%)” and the “ALT Within 10% of Baseline, n subjects” value (Week 12, m=34) was 10. For the same molecule, the “AST >10% decrease from Baseline, % of subjects” value (Week 12, m=34) was “(61.8%)”, the “AST >10% decrease from Baseline, n subjects” value (Week 12, m=34) was 21 and the “AST >10% increase from Baseline, % of subjects” value (Week 12, m=34) was “(20.6%)”. The “AST >10% increase from Baseline, n subjects” value (Week 12, m=34) was 7, the “AST Within 10% of Baseline, % of subjects” value (Week 12, m=34) was “(17.6%)” and the “AST Within 10% of Baseline, n subjects” value (Week 12, m=34) was 6. The “Albumin >10% decrease from Baseline, % of subjects” value (Week 12, m=34) was “(5.9%)”, the “Albumin >10% decrease from Baseline, n subjects” value (Week 12, m=34) was 2 and the “Albumin >10% increase from Baseline, % of subjects” value (Week 12, m=34) was “(2.9%)”. For the same molecule, the “Albumin >10% increase from Baseline, n subjects” value (Week 12, m=34) was 1, the “Albumin Within 10% of Baseline, % of subjects” value (Week 12, m=34) was “(91.2%)” and the “Albumin Within 10% of Baseline, n subjects” value (Week 12, m=34) was 31. For the same molecule, the “Alkaline Phosphatase >10% decrease from Baseline, % of subjects” value (Week 12, m=34) was “(67.6%)”, the “Alkaline Phosphatase >10% decrease from Baseline, n subjects” value (Week 12, m=34) was 23 and the “Alkaline Phosphatase >10% increase from Baseline, % of subjects” value (Week 12, m=34) was “(14.7%)”. For the same molecule, the “Alkaline Phosphatase >10% increase from Baseline, n subjects” value (Week 12, m=34) was 5, the “Alkaline Phosphatase Within 10% of Baseline, % of subjects” value (Week 12, m=34) was “(17.6%)” and the “Alkaline Phosphatase Within 10% of Baseline, n subjects” value (Week 12, m=34) was 6. For the same molecule, the “Bilirubin >10% decrease from Baseline, % of subjects” value (Week 12, m=34) was “(44.1%)”, the “Bilirubin >10% decrease from Baseline, n subjects” value (Week 12, m=34) was 15 and the “Bilirubin >10% increase from Baseline, % of subjects” value (Week 12, m=34) was “(26.5%)”. For the same molecule, the “Bilirubin >10% increase from Baseline, n subjects” value (Week 12, m=34) was 9, the “Bilirubin Within 10% of Baseline, % of subjects” value (Week 12, m=34) was “(29.4%)” and the “Bilirubin Within 10% of Baseline, n subjects” value (Week 12, m=34) was 10. For the same molecule, the “ALKALINE PHOSPHATASE Change from Baseline, Median” value (Week 12, n=34) was −23 U/L, the “ALT Change from Baseline, Mean” value (Week 12, n=34) was −9.8 U/L and the “ALT Change from Baseline, Median” value (Week 12, n=34) was −4 U/L. For the same molecule, the “ALT Observed Value, Mean” value (Week 12, n=34) was 33.6 U/L, the “ALT Observed Value, Median” value (Week 12, n=34) was 27.5 U/L and the “AST Change from Baseline, Mean” value (Week 12, n=34) was −4.2 U/L. The “AST Change from Baseline, Median” value (Week 12, n=34) was −5 U/L, the “AST Observed Value, Mean” value (Week 12, n=34) was 28.4 U/L and the “AST Observed Value, Median” value (Week 12, n=34) was 25 U/L. The “Albumin Change from Baseline, Mean” value (Week 12, n=34) was -0.9 g/L, the “Albumin Change from Baseline, Median” value (Week 12, n=34) was -1 g/L and the “Albumin Observed Value, Mean” value (Week 12, n=34) was 41.2 g/L. The “Albumin Observed Value, Median” value (Week 12, n=34) was 41 g/L, the “Alkaline Phosphatase Change from Baseline, Mean” value (Week 12, n=34) was −27.2 U/L and the “Alkaline Phosphatase Observed Value, Mean” value (Week 12, n=34) was 108.6 U/L. For the same molecule, the “Alkaline Phosphatase Observed Value, Median” value (Week 12, n=34) was 98 U/L, the “Bilirubin Change from Baseline, Mean” value (Week 12, n=34) was -1.54 µmol/L and the “Bilirubin Change from Baseline, Median” value (Week 12, n=34) was -0.05 µmol/L. The “Bilirubin Observed Value, Mean” value (Week 12, n=34) was 10.57 µmol/L, the “Bilirubin Observed Value, Median” value (Week 12, n=34) was 8.35 µmol/L and the “Gamma Glutamyl Transferase Change from Baseline, Mean” value (Week 12, n=34) was −8.1 U/L. The “Gamma Glutamyl Transferase Change from Baseline, Median” value (Week 12, n=34) was −4 U/L, the “Gamma Glutamyl Transferase Observed Value, Mean” value (Week 12, n=34) was 67.9 U/L and the “Gamma Glutamyl Transferase Observed Value, Median” value (Week 12, n=34) was 51 U/L. The “ALT >10% decrease from Baseline, % of subjects” value (Week 16, m=38) was “(52.6%)”, the “ALT >10% decrease from Baseline, n subjects” value (Week 16, m=38) was 20 and the “ALT >10% increase from Baseline, % of subjects” value (Week 16, m=38) was “(21.1%)”. The “ALT >10% increase from Baseline, n subjects” value (Week 16, m=38) was 8, the “ALT Within 10% of Baseline, % of subjects” value (Week 16, m=38) was “(26.3%)” and the “ALT Within 10% of Baseline, n subjects” value (Week 16, m=38) was 10. The “AST >10% decrease from Baseline, % of subjects” value (Week 16, m=38) was “(50.0%)”, the “AST >10% decrease from Baseline, n subjects” value (Week 16, m=38) was 19 and the “AST >10% increase from Baseline, % of subjects” value (Week 16, m=38) was “(18.4%)”. The “AST >10% increase from Baseline, n subjects” value (Week 16, m=38) was 7, the “AST Within 10% of Baseline, % of subjects” value (Week 16, m=38) was “(31.6%)” and the “AST Within 10% of Baseline, n subjects” value (Week 16, m=38) was 12. For the same molecule, the “Albumin >10% decrease from Baseline, % of subjects” value (Week 16, m=38) was “(5.3%)”, the “Albumin >10% decrease from Baseline, n subjects” value (Week 16, m=38) was 2 and the “Albumin >10% increase from Baseline, n subjects” value (Week 16, m=38) was 0. For the same molecule, the “Albumin Within 10% of Baseline, % of subjects” value (Week 16, m=38) was “(94.7%)”, the “Albumin Within 10% of Baseline, n subjects” value (Week 16, m=38) was 36 and the “Alkaline Phosphatase >10% decrease from Baseline, % of subjects” value (Week 16, m=38) was “(60.5%)”. The “Alkaline Phosphatase >10% decrease from Baseline, n subjects” value (Week 16, m=38) was 23, the “Alkaline Phosphatase >10% increase from Baseline, % of subjects” value (Week 16, m=38) was “(21.1%)” and the “Alkaline Phosphatase >10% increase from Baseline, n subjects” value (Week 16, m=38) was 8. The “Alkaline Phosphatase Within 10% of Baseline, % of subjects” value (Week 16, m=38) was “(18.4%)”, the “Alkaline Phosphatase Within 10% of Baseline, n subjects” value (Week 16, m=38) was 7 and the “Bilirubin >10% decrease from Baseline, % of subjects” value (Week 16, m=38) was “(63.2%)”. The “Bilirubin >10% decrease from Baseline, n subjects” value (Week 16, m=38) was 24, the “Bilirubin >10% increase from Baseline, % of subjects” value (Week 16, m=38) was “(23.7%)” and the “Bilirubin >10% increase from Baseline, n subjects” value (Week 16, m=38) was 9. For the same molecule, the “Bilirubin Within 10% of Baseline, % of subjects” value (Week 16, m=38) was “(13.2%)”, the “Bilirubin Within 10% of Baseline, n subjects” value (Week 16, m=38) was 5 and the “ALKALINE PHOSPHATASE Change from Baseline, Median” value (Week 16, n=38) was −22.5 U/L. The “ALT Change from Baseline, Mean” value (Week 16, n=38) was −8.0 U/L, the “ALT Change from Baseline, Median” value (Week 16, n=38) was −3 U/L and the “ALT Observed Value, Mean” value (Week 16, n=38) was 37.5 U/L. The “ALT Observed Value, Median” value (Week 16, n=38) was 26.5 U/L, the “AST Change from Baseline, Mean” value (Week 16, n=38) was −3.3 U/L and the “AST Change from Baseline, Median” value (Week 16, n=38) was −3 U/L. The “AST Observed Value, Mean” value (Week 16, n=38) was 29.8 U/L, the “AST Observed Value, Median” value (Week 16, n=38) was 26 U/L and the “Albumin Change from Baseline, Mean” value (Week 16, n=38) was -0.7 g/L. For the same molecule, the “Albumin Change from Baseline, Median” value (Week 16, n=38) was -0.5 g/L, the “Albumin Observed Value, Mean” value (Week 16, n=38) was 41.7 g/L and the “Albumin Observed Value, Median” value (Week 16, n=38) was 42 g/L. The “Alkaline Phosphatase Change from Baseline, Mean” value (Week 16, n=38) was −24.5 U/L, the “Alkaline Phosphatase Observed Value, Mean” value (Week 16, n=38) was 114.2 U/L and the “Alkaline Phosphatase Observed Value, Median” value (Week 16, n=38) was 102 U/L. The “Bilirubin Change from Baseline, Mean” value (Week 16, n=38) was -3.41 µmol/L, the “Bilirubin Change from Baseline, Median” value (Week 16, n=38) was -1.75 µmol/L and the “Bilirubin Observed Value, Mean” value (Week 16, n=38) was 9.40 µmol/L. For the same molecule, the “Bilirubin Observed Value, Median” value (Week 16, n=38) was 8.1 µmol/L, the “Gamma Glutamyl Transferase Change from Baseline, Mean” value (Week 16, n=38) was −7.0 U/L and the “Gamma Glutamyl Transferase Change from Baseline, Median” value (Week 16, n=38) was −5.5 U/L.
